Legend:
SUMO-1 = molecular target: T1, SUMO-1 (Homo sapiens, UniProt P63165); assay: sumo-1 antisense oligonucleotides, induction of HIF-1 in hypoxia; type: cell-based
T1 construct: endogenous in cells
From the text: Posttranslational SUMOlation influences HIF-1α regulated gene expression. In order to test that HIF-1 is SUMO-1 modified, we conducted experiments which indicated an association of HIF-1α both with endogenous as well as epitope (hexahistidine)-tagged SUMO-1 HIF-1α induction was rapid and was detected by immunopecipitating SUMO-1. To further investigate the impact of SUMOlation on HIF-1 conveyed gene expression, we designed antisense oligonucleotides AS31(SEQ ID NO: 22), AS64 (SEQ ID NO: 23), and AS617 (SEQ ID NO: 24) directed against SUMO-1. […] Thus, we were able to modify the HIF-1 conveyed hypoxia adaptive response by administration of sumo-1 antisense oligonucleotides.

KB cells = assay: Multicellular spheroid model, doxorubicin toxicity by BCECF labeling; type: cell-based; conditions: doxorubicin 1 μM
Method: Multicellular spheroid model: A multicellular spheroid model was developed using KB cells grown at high density of membrane permeable supports. Briefly, KB cells in suspension were plated at high density (˜10^7 cells/cm^2) on 0.33 cm^2 collagen-coated permeable supports (Corning-Costar, Cambridge, Ma.) and allowed to grow as domes on these substrates for two weeks. Media was replaced every other day and at two weeks, multicellular spheroids were subjected to a 24 or 48 hr period of hypoxia or normoxia, in the presence or absence of the P-glycoprotein substrate doxorubicin (1 μM final concentration) (Sigma, St Louis, Mo.). At the termination of the experiment, the number of viable, intact cells was determined by measurement of the amount of esterase cleavable fluorescent marker 2′7′-bis(carboxyethyl)-5(6)-carboxyfluorescein pentaacetoxymethyl ester (BCECF-AM, 5 μM final concentration Calbiochem, San Diego, Calif.) retained over a 30 min period, a sensitive measurement cytoxicity) (Wierda et al., J. Immunol. […] Multicellular spheroids were washed three times in HBSS and fluorescence intensity was measured on a fluorescent plate reader. […]

mdr1 gene = assay: Genechip expression array screen of epithelial cells for mdr1 induction; type: cell-based, human; conditions: T84 epithelial cells, exposure similar to hypoxia (6 and 18 hrs)
Method: Analysis of messenger RNA levels by RT-PCR: The transcriptional profile of epithelial cells exposed to ambient hypoxia was assessed in RNA derived from control or hypoxic epithelia (T84 cells at 6 or 18 hr hypoxia) using quantitative genechip expression arrays (Affymetrix, Inc., Santa Clara, Calif.) (Lockhart et al., Nat. Biotechnol., 14, 1675–1680, 1996). RT-PCR analysis of mRNA levels was performed using DNAse treated total RNA as previously described (Taylor et al., J. Biol. Chem., 274, 19447–19450, 1999) using primers specific for mdr1 (forward primer 5′-AACGGAAGCCAGAACATTCC-3′ (SEQ ID NO: 37) and reverse primer 5′-AGGCTTCCTGTGGCAAAGAG-3′ (SEQ ID NO: 38), 180 bp fragment), HIF-1α (forward primer 5′- CTCAAAGTCGGACAGCCTCA-3′ (SEQ ID NO: 39) and reverse primer 5′-CCCTGCAGTAGGTTTCTGCT -3′ (SEQ ID NO: 40), 460 bp fragment) or control β-actin (forward primer 5′-ATGACTTCCAAGCTGGCCGTGGCT-3′ (SEQ ID NO: 41) and antisense primer 5′-TCTCAGCCCTCTTCAAAAACTTCTC-3′ (SEQ ID NO: 42), 661 bp fragment). Each primer set was amplified using 25 cycles, unless otherwise noted, of 94° C. for 1 min, 60° C. for 2 min, 72° C. for 4 min, and a final extension of […] for 7 min. The PCR reactions were then visualized on a 1.5% agarose gel containing 5 μg/ml of ethidium bromide. […]

T1 sequence (P63165 1-97 limits assumed): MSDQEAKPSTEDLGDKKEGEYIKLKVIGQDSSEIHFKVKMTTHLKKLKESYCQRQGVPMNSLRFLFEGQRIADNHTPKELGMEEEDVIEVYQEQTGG

| Molecule | induction of HIF-1 in hypoxia (SUMO-1) | other results |
| --- | --- | --- |
| AS31: antisense oligonucleotide directed against SUMO-1 (antisense CACAGCAGCGGCCTCGGGTA; chemistry not given here) | able to modify the induction of HIF-1 in hypoxia |  |
| COc1cccc2c1C(=O)c1c(O)c3c(c(O)c1C2=O)C[C@@](O)(C(=O)CO)C[C@@H]3O[C@H]1C[C@H](N)[C@H](O)[C@H](C)O1 [doxorubicin] |  | degree of cell death (number of intact cells, BCECF labeling) (KB cells; 24 hr hypoxia vs normoxia, p<0.01): significantly decreased; degree of cell death (number of intact cells, BCECF labeling) (KB cells; 48 hr hypoxia vs normoxia, p<0.001): significantly decreased |
| AS64: antisense oligonucleotide directed against SUMO-1 (antisense CATGATGACGGTGGCTTCAC; listed as DNA, chemistry not given here) | able to modify the induction of HIF-1 in hypoxia |  |
| AS617: antisense oligonucleotide directed against SUMO-1 (antisense GTGACCTCTCTGTGCACACG; listed as DNA, chemistry not given here) | able to modify the induction of HIF-1 in hypoxia |  |
| IFN-γ: proinflammatory cytokine (protein, UniProt P01579 24-161, looked up) Interferon gamma: QDPYVKEAENLKKYFNAGHSDVADNGTLFLGILKNWKEESDRKIMQSQIVSFYFKLFKNFKDDQSIQKSVETIKEDMNVKFFNSNKKKRDDFEKLTNYSVTDLNVQRKAIHELIQVMAELSPAAKTGKRKRSQMLFRG |  | induction of mdr1 (mdr1 gene): did not induce mdr1 |
